What was measured:
[1] = test system: H9 (Homo sapiens); test: microbe, parasite or virus in culture; conditions: H9, 72 h
[2] = test system: H9; test: Cytotoxicity against human H9 cells; format: ADME, cell-based

Row | Compound | IC50 [1] | EC50 [2]
1 | COc1cc(/C=C/C(=O)N[C@H]2CCc3cc(OC)c(OC)c(OC)c3-c3ccc(OC)c(=O)cc32)cc(OC)c1O | 180 nM | 180 nM
2 | COc1cc(C(=O)N[C@H]2CCc3cc(OC)c(OC)c(OC)c3-c3ccc(OC)c(=O)cc32)cc(OC)c1OC | 40 nM | 20 nM
3 | COc1cc2c(c(OC)c1OC)-c1ccc(N(C)C)c(=O)cc1[C@@H](NC(C)=O)CC2 | 85 nM | 85 nM
4 | COc1cc(C(=O)N[C@H]2CCc3cc(OC)c(OC)c(OC)c3-c3ccc(OC(=O)c4cc(OC)c(OC)c(OC)c4)c(=O)cc32)cc(OC)c1OC |  | 1400 nM
5 | COc1cc2c(c(OC)c1O)-c1ccc(O)c(=O)cc1[C@@H](NC(C)=O)CC2 | 270 nM | 270 nM
6 | N[C@H]1CCc2cc(O)c(O)c(O)c2-c2ccc(=O)c(O)cc21 | 50000 nM | 30000 nM
7 | COc1cc2c(c(OC)c1O)-c1ccc(SC)c(=O)cc1[C@@H](N)CC2 | 1400 nM | 1100 nM
8 | COc1cc2c(c(OC)c1OC)-c1ccc(O)c(=O)cc1[C@@H](N)CC2 | 1200 nM | 1300 nM
9 | COc1cc2c(c(OC)c1OC)-c1ccc(OC)c(=O)cc1[C@@H](NC(=O)C(F)(F)F)CC2 | 6.6 nM | 8.8 nM
10 | COc1cc2c(c(OC)c1OC)-c1ccc(=O)c(OC)cc1[C@@H](NC(=O)C(F)(F)F)CC2 | 660 nM | 660 nM
11 | O=C(N[C@H]1CCc2cc(O)c(O)c(O)c2-c2ccc(=O)c(O)cc21)C(F)(F)F | 23000 nM | 23000 nM
12 | COc1cc2c(c(OC)c1O)-c1ccc(OC)c(=O)cc1[C@@H](NC(C)=O)CC2 [2-DESMETHYLCOLCHICIN] | 260 nM | 260 nM
13 | COc1cc2c(c(OC)c1OC)-c1ccc(OC)c(=O)cc1[C@@H](NC(C)=O)CC2 [COLCHICINE] | 18 nM | 10 nM

More lines, main results first:

Row | IC50 [1] | Compound | EC50 [2]
14 | 52 nM | COc1cc2c(c(OC)c1O)-c1ccc(SC)c(=O)cc1[C@@H](NC(C)=O)CC2 | 47 nM
15 | 5.5 nM | COc1cc(/C=C/C(=O)N[C@H]2CCc3cc(OC)c(OC)c(OC)c3-c3ccc(OC)c(=O)cc32)cc(OC)c1OC | 5.5 nM
16 | 200 nM | COc1cc2c(c(OC)c1OC)-c1ccc(O)c(=O)cc1[C@@H](NC(=O)C(F)(F)F)CC2 | 570 nM
17 | 1600 nM | COc1cc2c(c(OC)c1OC)-c1ccc(N(C)C)c(=O)cc1[C@@H](N)CC2 | 940 nM
18 | 1200 nM | CC(=O)N[C@H]1CCc2cc(O)c(O)c(O)c2-c2ccc(O)c(=O)cc21 | 1200 nM
19 | 290 nM | COc1cc2c(c(OC)c1OC)-c1ccc(OC)c(=O)cc1[C@@H](NC(=O)/C=C/c1ccc(O)c(O)c1)CC2 | 290 nM
20 | 2800 nM | COc1cc2c(c(OC)c1OC)-c1ccc(=O)c(OC)cc1[C@@H](N)CC2 | 2800 nM
21 | > 2700 nM | COc1cc2c(c(OC)c1OC)-c1ccc(=O)c(N(C)C)cc1[C@@H](N)CC2 | > 2700 nM

Reference: ChEMBL document CHEMBL1158954, “Anti-AIDS agents, 3. Inhibitory effects of colchicine derivatives on HIV replication in H9 lymphocyte cells” (J Nat Prod, 1991)
